Tests used:
Assay type in all cases: cell-based, Arabidopsis thaliana
[1] = test system: guard cells of x-luc1 and x-luc9 ecto-luciferase lines; test: Ecto-luciferase luminescence imaging of extracellular ATP in epidermal peels
Excerpt: Ecto-luciferase Construct and Plant Transformation: The nucleotide sequence for the 24 amino acid, cleavable signal peptide from the Brassica pollen coat protein, S-locus cysteine-rich protein (SCR13; AF195626) was used to target luciferase for secretion (Schopfer et al., 1999). The signal peptide was incorporated at the N-terminus of the luciferase gene by PCR and the SCR13 signal peptide modified luciferase PCR product was then ligated into the binary vector pLBJ21. This construct was then transformed into Agrobacterium tumefaciens strain GV3101 (pMP90) and then transformed into Arabidopsis plants (Col-0) using the floral dipping method (Clough and Bent, 1998). Transgenic plants were selected by planting on solidified Murashige and Skoog (MS) medium (4.3 g/L Murashige and Skoog salts (Sigma), 0.5% (w/v) MES, and 1.0% (w/v) agar, raised to pH 5.7 with 5 M KOH) containing 50 μg/mL kanamycin. Segregation of T3 generation on kanamycin plates was analysed in order to obtain homozygous lines. Plants showing kanamycin resistance were checked for luciferase activity by growing transgenic plants in MS medium for 10 days and then transferring the whole seedlings into test tubes. Luminescence measurements were performed by placing the test tubes in the light-tight housing of the luminometer reader (Dynatech). Experimental solutions with luciferin substrate with and without 1 mM ATP were injected by an automatic injector, and after 3 seconds counting started at 0.2 second time intervals.
Imaging of Luminescence in Ecto-luciferase Plants: Ecto-luciferase seeds were surface-sterilized, stratified in the dark in 4° C. for at least three days and then planted directly on a cellophane membrane placed upon solidified MS with 1.0% (w/v) agar. Planted plates were placed upright in a culture chamber and grown at 23° C. under 24-h fluorescent light for 7 days. Plates were then reoriented so that the solidified MS medium was at the bottom of the plate and the seedling was able to grow up into the empty space of the petri dish. Seedlings were then allowed to mature for up to 4 weeks under identical temperature and light settings. For “dark” studies petri dishes of 3-4 week old plants were placed in a dark chamber for 24 hours prior to use in the studies.
Mature basal leaves were excised from x-luc1 and x-luc9 plants 3-4 weeks old. Peels were taken and then immediately floated with the abaxial side up in 40 μL, of Arabidopsis leaf buffer on a microscope slide and the chemical being tested in either light or dark conditions depending on the experimental setup. The placing of the peels within their respective solution was considered time zero. Peels were treated for a minimum of 5 minutes before luciferin and flash buffer were added to the solution. […] Luminescence was integrated over 120 seconds, High Gain, Read Out set to slow, using 4×4 pixel binning with Cosmic Suppression on, Background Correction off, and Flatfield Correction off with the filter set to Photo.
All luminescence analysis was conducted using the indiGO Analysis Software (version 2.0.0.26). All images consisted of a photographic image in grayscale with an overlaid luminescence image in pseudo color. […]

[2] = test system: stomata (guard cells) in epidermal peels; test: Stomatal aperture closure studies, epidermal peels in the light; details: for effect on stomatal aperture: epidermal peels, 1 h
Procedure: (§1) Stomatal Aperture Studies: Arabidopsis thaliana ecotypes Columbia (Col-0) and Wassilewskija (WS) were used as wild types in this study. Col-0, nia1nia2, atrbohD/F, R2-4A and WS plants were all grown on autoclaved Metro-Mix 200 soil at 22° C. under continuous light. The mutant seeds nia1nia2 nia2-5; CS 2356; Col-0 background) were obtained from Dr. N. M. Crawford (University of California at San Diego) and the mutant seeds atrbohD/F (Col-0 background) were obtained from Dr. J. M. Kwak (University of Maryland). The RNAi mutant apyrase line (R2-4A) is in WS background, so WS ecotype was used as the control wild type for these studies. Leaves from 2 to 3 week old Col-0 plants, or R2-4A and WS plants treated with 4 μM estradiol for 1 week after development of mature basal leaves were used for peel and whole leaf studies. Plants were placed in the dark and watered 24 h before an study. For opening studies, plants were used immediately after 24 h dark treatment and all treatments were done in the dark except for the light treated leaves or peels, thus the control stomata are dark controls. For closure studies, plants were placed in the light 3 h before an study to induce stomatal opening and all treatments were done in the light, thus the control stomata are light controls. For peel studies, epidermal peels were made from the underside of the leaf and treatments were applied to the peels for 1 h. For whole leaf studies, leaves were removed and treatments were applied for 2 h. For each treatment, about 3 or 4 peels collected from different leaves or 3 or 4 different leaves of at least two different plants were floated with the abaxial side up in petri dishes on 3 mL of Arabidopsis leaf buffer consisting of 10 mM KCl, 25 mM MES pH 6.15 (Melotto et al., 2006) and the chemical being tested. For whole leaf studies peels were collected after the treatment.
(§2) For studies testing the effects of ATPγS, ADPγS, AMPS, RB2, and PPADS (Sigma, St. Louis, Mo., USA) 20 mM stocks were made by dissolving the compounds in de-ionized water. For studies testing the effects of apyrase inhibitors, 7.5 mg/mL of NGXT191 and of inhibitor #13 (Windsor et al., 2002) was dissolved in dimethyl sulfoxide (DMSO) and then applied at a dilution of […] for a final concentration of 0.1% DMSO. ABA (Sigma, St. Louis, Mo., USA) was dissolved in ethanol in 10 mM stocks and then applied at a dilution of 1:1000. The stocks were stored at −20° C. while not in use. The production of the anti-AtAPY1 antibodies used is described by Steinebrunner et al. (2003). The crude immune and pre-immune sera were purified using protein A-Sepharose following the protocol described by Martin (1982) with the slight modification that the buffers used were azide-free. The protein-A purified sera were both used at a 1:1000 dilution in leaf stomatal aperture studies. The concentration of the immune and pre-immune sera, determined by Bradford assay (Bio-Rad), was 10.2 μg/mL and 7.7 μg/mL, respectively.
(§3) After treatment, photos of stomata were taken using a light microscope at 20×. Stomatal aperture width was measured using the image processing software ImageJ. Typically, photos were taken of 70 to 90 stomata per treatment of which only 50 stomata were measured for each treatment. For each treatment the ratio of closed stomata (width of 0) to open stomata was determined for all stomata imaged and this ratio was maintained in the 50 stomata that were measured for each treatment. Data shown uses apertures determined as width/length, however data in all studies also obtained as width only and generally width/length and width only data are in agreement with each other. Statistical significance of the measurements for the treatments was determined using the Student's t test in Microsoft Excel.

[3] = test system: stomata (guard cells) in whole leaves; test: Stomatal aperture closure studies, whole leaves in the light; details: for threshold for nucleotide-induced stomatal closure: whole leaf studies, compared with peel studies (150 to 200 μM; not shown)
Procedure: as §1, §2, §3

H2O2 in guard cells = test: Detection and quantification of H2O2 (H2DCFDA fluorescence)
Procedure: (§4) Detection and Quantification of H2O2 and NO: Col-0 plants were grown on soil for 2 to 4 weeks under continuous light at 21° C. Plants were placed in the dark for 24 h to ensure closure and then transferred to the light for 1 h. After 1 h in the light, mature basal leaves were excised and blended in a Waring blender on the low setting for approximately 10 s to isolate epidermal tissues, and the tissues were placed in 3 mL of 30 mM KCl, 10 mM Mes-KOH, pH 6.16 buffer in light for 2 h (Pei et al., 2000; Murata et al., 2001). DAF-2 DA and H2DCFDA were dissolved in DMSO to produce 5 mM and 10 mM stock solutions, respectively, and these were stored at −20° C. in 30 μL, aliquots. Fifty μM H2DCFDA or 15 μM DAF-2 DA was added to the medium in the dark, and after 30 min, 10 μM ABA, 200 μM ATPγS, or buffer (ATP control) was also added to the medium in the dark for 30 min. Peels were then rinsed by decanting the treatment solution and adding 3 mL fresh leaf buffer to the peels. Peels were rinsed twice as described. A peel from each of the three treatments (ABA, ATPγS and buffer) were placed on the same microscope slide and observed sequentially. A second study was staggered 30 to 45 min after the first by loading the H2DCFDA or DAF-2 DA dye to new peels 30 to 45 min after the first round of dye was added. Confocal laser scanning microscopy (CLSM) was performed with a Leica SP2 AOBS confocal microscope (Leica Microsystems, Bannockburn, Ill., USA). Laser power was set at 15%, with an excitation of 488 nm and an emission of 525 nm. A series of 0.5 μm optical sections with average intensity projection along the z axis were collected and made into one 2D image with greater focal depth. All images were obtained with the same software scanning settings including detector gain and laser intensity settings.

[4] = test system: stomata of nia1nia2 mutant leaves; test: Stomatal closing studies with whole leaves of nia1nia2 mutant; details: 200 ATPγS
Procedure: (§5) Stomatal Aperture Studies: Arabidopsis thaliana ecotypes Columbia (Col-0) and Wassilewskija (WS) were used as wild types in this study. Col-0, nia1nia2, atrbohD/F, R2-4A and WS plants were all grown on autoclaved Metro-Mix 200 soil at 22° C. under continuous light. The mutant seeds nia1nia2 nia2-5; CS 2356; Col-0 background) were obtained from Dr. N. M. Crawford (University of California at San Diego) and the mutant seeds atrbohD/F (Col-0 background) were obtained from Dr. J. M. Kwak (University of Maryland). The RNAi mutant apyrase line (R2-4A) is in WS background, so WS ecotype was used as the control wild type for these studies. […]
as §3, with “Statistical significance of the measurements for the treatments was determined using the Student's t test in Microsoft Excel.” left out

[5] = test system: stomata (guard cells) in whole leaves; test: Stomatal aperture opening studies, whole leaves in the dark; details: whole leaf studies (data not shown)
Procedure: as §1
as §2, with “The crude immune and pre-immune sera were purified using protein A-Sepharose following the protocol described by Martin (1982) with the slight modification that the buffers used were azide-free. The protein-A purified sera were both used at a 1:1000 dilution in leaf stomatal aperture studies.” left out
as §3

[6] = test system: stomata of atrbohD/F mutant leaves; test: Stomatal closing studies with whole leaves of atrbohD/F mutant; details: 200 ATPγS
Procedure: as §5
as §3, with “Statistical significance of the measurements for the treatments was determined using the Student's t test in Microsoft Excel.” left out

[7] = test system: stomata (guard cells) in epidermal peels; test: Stomatal aperture opening studies, epidermal peels in the dark; details: for effect on stomatal aperture: darkness, 1 h
Procedure: as §1, §2, §3

NO in guard cells = test: Detection and quantification of NO (DAF-2 DA fluorescence)
Procedure: as §4

Nc1ncnc2c1ncn2[C@@H]1O[C@H](COP(=O)(O)OP(O)(O)=S)[C@@H](O)[C@H]1O [ADPβS]
ecto-luciferase luminescence of stomata, average ([1]; 200 μM, 5 min, open stomata (data not shown)): 2.75 cps
threshold for nucleotide-induced stomatal closure ([2]; epidermal peel studies, light): same threshold
threshold for nucleotide-induced stomatal closure [3]: the same as found in the peel studies

Nc1ncnc2c1ncn2[C@@H]1O[C@H](COP(=O)(O)OP(=O)(O)OP(=O)(O)O)[C@@H](O)[C@H]1O [ATP]
ecto-luciferase luminescence, average ([1]; 1 mM, 5 min or longer, x-luc1 and x-luc9 lines, centered around guard cells): 4.75 counts per second (cps)
ecto-luciferase luminescence of pavement cells, average ([1]; 1 mM, pavement cells of the epidermis): 1.35 cps

Nc1ncnc2c1ncn2[C@@H]1O[C@H](COP(=O)(O)OP(=O)(O)OP(O)(O)=S)[C@@H](O)[C@H]1O [ATPγS]
increase in H2DCFDA fluorescence in guard cells (H2O2 in guard cells; 200 μM, leaf epidermal tissue, after 30 min): 3 fold
effect on stomatal aperture [4]: no effect on stomatal aperture
threshold concentration for stomatal opening [5]: higher than 5 μM
effect on stomatal aperture [6]: no effect on stomatal aperture
effect on stomatal aperture ([7]; 5 μM): induced opening
effect on stomatal aperture ([7]; 15 μM): induced opening
mean stomatal aperture compared with light treatment ([7]; low concentrations (5 and 15 μM)): smaller than the aperture induced by light treatment
effect on stomatal aperture ([2]; 150 μM, light): no statistically significant effect
mean stomatal aperture after closure compared with ABA ([2]; 200 μM versus 10 μM ABA): statistically the same as the aperture induced by treatment with 10 μM ABA
effect on stomatal aperture ([2]; 200 μM, light): induced stomatal closure
effect on stomatal aperture ([2]; 250 μM, light): induced stomatal closure
effect on stomatal aperture ([3]; 200 μM, leaves, light, 2 h): induced stomatal closure
threshold for nucleotide-induced stomatal closure [3]: same threshold
increase in DAF-2 DA fluorescence in guard cells (NO in guard cells; 200 μM, leaf epidermal tissue, after 45 min): 2.5 fold

CC(=O)N[C@@H](CS)C(=O)O [NAC, N-acetyl-L-cysteine]
effect on ABA- and ATPγS-induced H2DCFDA fluorescence (H2O2 in guard cells; co-incubation (data not shown)): blocked

CC1(C)N([O])C(c2ccc(C(=O)O)cc2)=[N+]([O-])C1(C)C [cPTIO]
effect on ABA- and ATPγS-induced DAF-2 DA fluorescence (NO in guard cells; co-incubation (data not shown)): blocked
